In patent US12440581B2, “Fluorophores for super-resolution imaging” (HOWARD HUGHES MEDICAL INSTITUTE, priority 2019, dated 2025):
Like-named read-outs stand apart in the source and are kept apart here.

Key:
[1] = tested on: histone H2A.Z-HaloTag fusion; test: Comparison of HaloTag ligands 6HTL and 9HTL in live yeast; assay type: cell-based, S. cerevisiae; conditions: 10 nM, 2 h, washed, wide-field fluorescence
Description: Comparison of HaloTag ligands 6HTL and 9HTL. in live yeast. A S. cerevisiae strain expressing a histone H2A.Z-HaloTag fusion under natural promoter control was created; the PDR5 transporter gene was also deleted for improved cellular retention of fluorescent ligands. Cells were grown to early log phase and incubated with either JF552-HaloTag ligand (9HTL; 10 nM) or JF549-HaloTag ligand (6HTL; 10 nM) for 2 h. Free ligand was removed by three washes in culture media and the live cells were imaged by wide-field fluorescence microscopy at ambient temperature.

[2] = Introduction, known dyes; cited from earlier work
[3] = Quantum yield determination; assay type: physicochemical; conditions: for ϕ (fluorescence quantum yield): absolute, integrating sphere
Description: (§1) Quantum yield determination. All reported absolute fluorescence quantum yield values (Φ) were measured in the laboratory under identical conditions using a Quantaurus-QY spectrometer (model C11374, Hamamatsu). This instrument uses an integrating sphere to determine photons absorbed and emitted by a sample. Measurements were carried out using dilute samples (A<0.1) and self-absorption corrections were performed using the instrument software^57 when appropriate. Reported values are averages (n=3).

[4] = Introduction, known dyes; cited from earlier work; remark: listed apart in the source
[5] = Determination KL-Z and εmax; assay type: physicochemical; conditions: for εmax: 0.1% TFA in TFE (rhodamine 10), 0.1% TFA in ethanol (Si-rhodamine 8); for KL-Z (lactone-zwitterion equilibrium constant): 1:1 (v/v) dioxane:water, 0.01% triethylamine
Description: Determination KL-Z and εmax. The lactone-zwitterion equilibrium constant (KL-Z) was calculated as described previously^18,41 using equation 1: KL-Z=(εdw/εmax)/(1−εdw/εmax) (1) • where εdw is the extinction coefficient of the dyes in a 1:1 (v/v) dioxane:water solvent mixture containing 0.01% (v/v) triethylamine; the dioxane-water mixture was chosen to give a large range of KL-Z values and the triethylamine additive ensures the rhodamines are in the net neutral form. The emax (maximal extinction coefficient) values were measured in 0.1% (v/v) trifluoroacetic acid (TFA) in 2,2,2-trifluoroethanol (TFE) for rhodaminc 10, and 0.1% (v/v) TFA in ethanol for the Si-rhodamine 8.
Instead, a solution of strong acid in alcoholic solvents was used (e.g., TFA in […]) to shift the equilibrium to the open form by protonation of the o-carboxyl group. This decades-old procedure^36 allows estimation of the maximal extinction coefficient (εmax) and determination of KL-Z=(ε/εmax)/(1−ε/εmax).
The KL-Z was determined using ε values measured in 1:1 dioxane:water to ensure a broad distribution of values.^18 An inverse relationship was observed between KL-Z and fluorogenicity, showing that KL-Z is sufficient to accurately predict the increase in fluorescence of rhodamine dyes. This increase in fluorescence is primarily driven by the increase in absorption; chromogenicity is correlated both with KL-Z and fluorogenicity (FIGS. 11E-11J). Importantly, this trend holds across different rhodamine scaffolds including Si-rhodamines (1-3), carborhodamines (4-5), and classic, oxygen-containing rhodamines (6-7, FIG. 1C). Based on this inverse relationship a simple rubric was determined: a dye with KL-Z<10^−2 should yield a HaloTag ligand with at least 10-fold fluorogenicity (FIG. 1E).

[6] = Absorption of dyes 1 and 2 in the presence of laboratory detergents; assay type: physicochemical; conditions: 20 mM sodium phosphate buffer, pH 7.0, 5 mg/mL detergent
Description: FIGS. 11A-11J. FIG. 11A-Absorption at λabs for dyes 1 and 2 in 20 mM sodium phosphate buffer, pH 7.0 containing 5 mg/mL detergent, error bars show±s.e.m. FIGS. 11B and 11C-Absorption spectra for dyes 1 (FIG. 11B) and 2 (FIG. 11C) near λabs in the presence (dashed line) or absence (solid line) of SDS. FIG. 11D—Chemical structures and properties of HaloTag ligands 1HTL-10HTL; ΔA/A0 indicates the change in absorption (ΔA) and ΔF/F0 indicates the change in fluorescence (ΔF) of the HaloTag ligands upon binding purified HaloTag protein divided by the basal absorption or fluorescence of the free ligand (F0 or A0). FIG. 11E—ΔA/A0 of the HaloTag ligands 1HTL-10HTL vs. KL-Z of the corresponding free dyes 1-10; the solid line indicates a linear fit (R^2=0.93). (f) ΔF/F0 vs. ΔA/A0 for the HaloTag ligands 1HTL-10HTL; the solid line indicates a linear fit (R^2=0.87). FIG. 11G—Normalized absorption (abs, solid line), normalized fluorescence excitation (ex, dashed line), and FIG. 11H—normalized fluorescence emission (em) spectra for dye 8 in 10 mM HEPES, pH 7.3.
The mechanism of SiR/JF646 fluorogenicity. […] The interaction between the Si-rhodamine dyes 1 and 2 and SDS was further characterized by measuring the absorption of 1 or 2 vs. [SDS] and observing the absorbance increase only above the critical micelle concentration (c.m.c.) of SDS (FIG. 1C). […]

[7] = Introduction, known dyes, cited from earlier work; for ε (extinction coefficient): free dye in aqueous solution
[8] = UV-vis and fluorescence spectroscopy; assay type: physicochemical; conditions: for εw / λabs / λem: 10 mM HEPES, pH 7.3; for hypsochromic shift: relative to parent dye (SiR for SiR110; JF549 for JF525)
Description: UV-vis and fluorescence spectroscopy. […] Spectroscopy was performed using 1-cm path length, 3.5-mL quartz cuvettes or 1-cm path length, 1.0-ml quartz microcuvettes (Starna Cells). All measurements were taken at ambient temperature (22±2° C.). Absorption spectra were recorded on a Cary Model 100 spectrometer (Agilent). Fluorescence spectra were recorded on a Cary Eclipse fluorometer (Varian). Maximum absorption wavelength (λabs), extinction coefficient (εw), and maximum emission wavelength (λem) were taken in 10 mM HEPES, pH 7.3 buffer unless otherwise noted; reported values for ew are averages (n=3). Normalized spectra are shown for clarity.

polyG·polyC DNA (DNAGC) = test: Quantum yield of 10HST following binding DNA (polyG·polyC); conditions: PBS pH 7.4, with polyG·polyC DNA duplex
Description: as §1
(§2) Measurement of increase in absorbance and fluorescence of 10HST following binding DNA. 10HST (5 μM) was added to phosphate buffered saline (PBS; pH 7.4) containing no DNA (blank), a DNA duplex with sequences 5′-A20-3′ and 5′-T20-3′ (polyA·polyT; i.e., DNAAT; 50 μM; Integrated DNA Technologies), or a DNA duplex with sequences 5′-G20-3′ and 5′-C20-3′ (polyG·polyC; i.e., DNAGC; 50 μM; Integrated DNA Technologies). These solutions were incubated for 2 h at ambient temperature, followed by measurement of absorption spectra. The solutions were then diluted to 500 nM in PBS for measurement of fluorescence spectra or diluted to 1.25 μM in PBS for measurement of quantum yield. Found: 10HST Φ=0.009; 10HST·DNAAT Φ=0.126; 10HST·DNAGC Φ=0.040.

polyA·polyT DNA (DNAAT) = test: Quantum yield of 10HST following binding DNA (polyA·polyT); conditions: PBS pH 7.4, with polyA·polyT DNA duplex
Description: as §1, §2

Compound | ϕ (fluorescence quantum yield) [3] | εmax [5] | KL-Z (lactone-zwitterion equilibrium constant) [5] | εw [8] | λabs [8] [nm] | λem [8] [nm] | also measured
O=C(NCCOCCOCCCCCCCl)c1ccc2c(c1)C1(OC2=O)c2ccc(N3CCC3)cc2Oc2cc(N3CCC3)ccc21 [6HTL] | – | – | – | – | – | – | labeling of yeast nuclei (fluorescence signal) [1]: relatively poor labeling
O=C(NCCOCCOCCCCCCCl)c1ccc(C(=O)[O-])c(-c2c3cc(F)c(=[N+]4CCC4)cc-3oc3cc(N4CCC4)c(F)cc23)c1 [9HTL, JF552-HaloTag ligand] | – | – | – | – | – | – | labeling of yeast nuclei (fluorescence signal) [1]: high fluorescence signal
CN(C)c1ccc2c(c1)[Si](C)(C)c1cc(N(C)C)ccc1C21OC(=O)c2ccccc21 [dye 1, tetramethyl-Si-rhodamine] | 0.41 | 141,000 M^−1cm^−1 | 0.0034 | – | – | – | KL-Z [2]: 0.0034; Φ (fluorescence quantum yield) [4]: 0.41; change of absorption with detergents [6]: absorbance increases only in the presence of SDS
C[Si]1(C)c2cc(N3CCC3)ccc2C2(OC(=O)c3ccccc32)c2ccc(N3CCC3)cc21 [dye 2, JF646] | 0.54 | 152,000 M^−1cm^−1 | 0.0012 | 5,000 M^−1cm^−1 | 646 | 664 | λabs [7]: 646 nm; λem [7]: 664 nm; ε (extinction coefficient) [7]: 5,000 M^−1 cm^−1; KL-Z [2]: 0.0012; Φ (fluorescence quantum yield) [4]: 0.54; change of absorption with detergents [6]: absorbance increases only in the presence of SDS
C[Si]1(C)c2cc(N3CC(F)C3)ccc2C2(OC(=O)c3ccccc32)c2ccc(N3CC(F)C3)cc21 [dye 3, JF635] | 0.56 | 167,000 M^−1cm^−1 | <0.0001 | ~400 M⁻¹ cm⁻¹ | 635 | 652 | λabs [7]: 635 nm; λem [7]: 652 nm; ε (extinction coefficient) [7]: 400 M⁻¹ cm⁻¹; KL-Z [2]: < 0.0001; Φ (fluorescence quantum yield) [4]: 0.54
CC1(C)c2cc(N3CCC3)ccc2C2(OC(=O)c3ccccc32)c2ccc(N3CCC3)cc21 [dye 4, JF608] | 0.67 | 121,000 M^−1cm^−1 | 0.091 | 99,000 M^−1cm^−1 | 608 | 631 | –
CC1(C)c2cc(N3CC(F)(F)C3)ccc2C2(OC(=O)c3ccccc32)c2ccc(N3CC(F)(F)C3)cc21 [dye 5, JF585] | 0.78 | 156,000 M^−1cm^−1 | <0.0001 | 1,500 M^−1cm^−1 | 585 | 609 | –
O=C1OC2(c3ccc(N4CCC4)cc3Oc3cc(N4CCC4)ccc32)c2ccccc21 [dye 6, JF549] | 0.88 | 134,000 M^−1cm^−1 | 3.5 | 101,000 M^−1cm^−1 | 549 | 571 | –
O=C1OC2(c3ccc(N4CC(F)(F)C4)cc3Oc3cc(N4CC(F)(F)C4)ccc32)c2ccccc21 [dye 7, JF525] | 0.91 | 122,000 M^−1cm^−1 | 0.068 | 94,000 M^−1cm^−1 | 525 | 549 | hypsochromic shift [8]: ~25 nm
O=C([O-])c1ccccc1-c1c2cc(F)c(=[N+]3CCC3)cc-2oc2cc(N3CCC3)c(F)cc12 [dye 9, Janelia Fluor 552] | 0.83 | 129,000 M^−1cm^−1 | 0.70 | 95,000 M^−1cm^−1 | 552 | 575 | reduction of KL-Z ([5]; relative to JF549): 5 fold
JF526-Hoechst [10HST] | – | – | – | – | – | – | Φ (polyG·polyC DNA (DNAGC)): 0.040; Φ ([3]; PBS pH 7.4, no DNA (blank), 1.25 μM): 0.009; Φ (polyA·polyT DNA (DNAAT)): 0.126
Si-Rhodamine 110 [dye 8] | 0.53 | 94,000 M^−1cm^−1 | 0.0043 | 2,200 M^−1cm^−1 | 587 | 609 | hypsochromic shift [8]: ~50 nm
